Experimental findings from patent publication US20230265151A1, “GIP/GLP1 CO-AGONIST COMPOUNDS” (priority 2020, published 2023) are described below.

Format in all cases: cell-based
The target of experiment [1] is T1, hGIPR (Homo sapiens, UniProt P48546).
T1 construct: expressed in transfected cells
T1 sequence (P48546 22-466): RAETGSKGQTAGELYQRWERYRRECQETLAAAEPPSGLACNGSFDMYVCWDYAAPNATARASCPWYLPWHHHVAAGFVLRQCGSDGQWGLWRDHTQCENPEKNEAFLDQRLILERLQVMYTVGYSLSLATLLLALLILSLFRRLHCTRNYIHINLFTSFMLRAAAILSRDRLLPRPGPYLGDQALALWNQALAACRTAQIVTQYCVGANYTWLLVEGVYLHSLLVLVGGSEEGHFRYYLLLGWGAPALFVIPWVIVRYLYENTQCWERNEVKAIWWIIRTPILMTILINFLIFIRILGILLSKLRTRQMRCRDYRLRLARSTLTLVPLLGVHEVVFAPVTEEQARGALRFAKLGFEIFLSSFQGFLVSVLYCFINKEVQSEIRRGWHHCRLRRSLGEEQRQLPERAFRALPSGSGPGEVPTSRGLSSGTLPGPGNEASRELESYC
Kind of experiment: Functional cAMP formation (HTRF) in HEK-293 clonal cells expressing hGIPR, 0.1% bovine casein, without or with 1.0% human serum albumin. The settings on record: for EC50: geometric mean. In short, it runs like this:
(§1)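 Cells were stimulated with peptide for 30 min at 37° C, then lysed in buffer carrying cAMP-d2 and anti-cAMP Eu3+-cryptate for a competitive HTRF read after at least 60 min at room temperature. The 665/620 nm ratio was converted to nM cAMP against a standard curve.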

For experiment [2], the target named is T2, hGCGR (Homo sapiens, UniProt P47871).
T2 construct: expressed in transfected cells
Kind of experiment: Functional cAMP formation (HTRF) in HEK-293 clonal cells expressing hGCGR, 0.1% bovine casein, without or with 1.0% human serum albumin. The method, boiled down:
as §1

Experiment [3] deals with hGLP-1R (Homo sapiens, UniProt P43220). Kind of experiment: Functional cAMP formation (HTRF) in HEK-293 clonal cells expressing hGLP-1R, 0.1% bovine casein, without or with 1.0% human serum albumin. More on the design: expressed in transfected cells. The method, boiled down:
as §1

[4] abbreviates: hGIPR EC50, nM (SEM, n), cAMP, 37° C., 0.1% bovine casein (no human serum albumin).
Setting [5] is: hGCGR EC50, nM (SEM, n), cAMP, 37° C., 0.1% bovine casein (no human serum albumin), geometric mean.
Setting [6] is: HEK293, read-out: hGLP-1R Emax, % ± SEM, cAMP, 37° C., 0.1% bovine casein, percent of maximal response to GLP-1(7-36)NH2, arithmetic mean.
Where [7] appears, read: hGLP-1R EC50, nM (SEM, n), cAMP, 37° C., 0.1% bovine casein (no human serum albumin), geometric mean.
Where [8] appears, read: HEK293, percent of maximal response to GIP(1-42)NH2, 37° C., 0.1% bovine casein, arithmetic mean, read-out: hGIPR Emax, % ± SEM.
The mark [9] stands for this setting: cAMP, incubated at 37° C., 0.1% bovine casein (no human serum albumin), read-out: hGIPR EC50, nM (SEM, n).
Where [10] appears, read: cAMP, incubated at 37° C., 0.1% bovine casein (no human serum albumin), geometric mean, read-out: hGCGR EC50, nM (SEM, n).

Read-outs that look alike come from different tables or passages of the source.

Chain of hGLP-1R (P43220 24-463): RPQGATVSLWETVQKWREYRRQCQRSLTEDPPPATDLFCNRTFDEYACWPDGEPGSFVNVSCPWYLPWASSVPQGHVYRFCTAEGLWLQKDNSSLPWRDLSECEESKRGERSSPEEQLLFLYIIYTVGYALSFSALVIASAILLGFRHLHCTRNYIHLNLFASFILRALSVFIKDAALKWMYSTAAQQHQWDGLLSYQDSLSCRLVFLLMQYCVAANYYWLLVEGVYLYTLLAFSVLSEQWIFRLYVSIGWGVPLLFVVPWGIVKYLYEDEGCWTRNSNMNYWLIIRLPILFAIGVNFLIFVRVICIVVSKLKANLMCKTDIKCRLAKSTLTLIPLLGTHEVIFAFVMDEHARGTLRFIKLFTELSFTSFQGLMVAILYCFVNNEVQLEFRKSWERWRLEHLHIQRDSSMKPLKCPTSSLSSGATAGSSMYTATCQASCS
T2 sequence (P47871 26-477): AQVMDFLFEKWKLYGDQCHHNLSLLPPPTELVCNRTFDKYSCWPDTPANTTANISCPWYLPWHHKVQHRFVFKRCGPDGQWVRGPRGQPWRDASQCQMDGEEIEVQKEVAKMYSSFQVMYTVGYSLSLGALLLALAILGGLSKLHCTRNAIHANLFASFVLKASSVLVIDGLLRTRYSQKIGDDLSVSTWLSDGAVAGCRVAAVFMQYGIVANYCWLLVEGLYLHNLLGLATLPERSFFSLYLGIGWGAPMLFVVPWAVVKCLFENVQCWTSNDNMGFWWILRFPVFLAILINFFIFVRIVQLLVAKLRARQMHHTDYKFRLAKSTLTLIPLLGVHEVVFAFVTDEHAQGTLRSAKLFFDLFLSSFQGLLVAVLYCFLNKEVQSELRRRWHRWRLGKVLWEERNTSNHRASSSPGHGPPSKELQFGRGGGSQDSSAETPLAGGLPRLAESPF

With `CC[C@H](C)[C@H](NC(=O)[C@H](CCCN)NC(=O)[C@H](CC(=O)O)NC(=O)[C@H](CC(C)C)NC(=O)[C@](C)(CC(C)C)NC(=O)[C@@H](NC(=O)C(C)(C)NC(=O)[C@H](Cc1ccncc1)NC(=O)[C@H](CC(=O)O)NC(=O)[C@H](CO)NC(=O)[C@@H](NC(=O)[C@](C)(Cc1ccccc1F)NC(=O)[C@@H](NC(=O)CNC(=O)[C@H](CCC(=O)O)NC(=O)C(C)(C)NC(=O)[C@@H](N)Cc1ccc(O)cc1)[C@@H](C)O)[C@@H](C)O)[C@@H](C)CC)C(=O)N[C@@H](C)C(=O)N[C@@H](CCC(N)=O)C(=O)NC(C)(C)C(=O)N[C@@H](CCC(=O)O)C(=O)N[C@@H](Cc1ccccc1)C(=O)N[C@H](C(=O)N[C@@H](CCCCNC(=O)COCCOCCNC(=O)COCCOCCNC(=O)CC[C@H](NC(=O)CCCCCCCCCCOc1ccc(C(=O)O)cc1)C(=O)O)C(=O)N[C@@](C)(Cc1ccc(O)cc1)C(=O)N[C@@H](CC(C)C)C(=O)N[C@H](C(=O)N[C@@H](CCCCNC(=O)COCCOCCNC(=O)COCCOCCNC(=O)CC[C@H](NC(=O)CCCCCCCCCCOc1ccc(C(=O)O)cc1)C(=O)O)C(=O)NCC(=O)NCC(=O)N1CCC[C@H]1C(=O)N[C@@H](CO)C(=O)N[C@@H](CO)C(=O)NCC(=O)N[C@@H](C)C(=O)N1CCC[C@H]1C(=O)N1CCC[C@H]1C(=O)N1CCC[C@H]1C(=O)N[C@@H](CO)C(N)=O)[C@@H](C)CC)[C@@H](C)CC` [Example 311], the Emax in experiment [1] (HEK293, read-out: hGIPR Emax, % ± SEM, 0.1% bovine casein and 1.0% human serum albumin, 37° C., percent of maximal response to GIP(1-42)NH2) came out at 98.3%; in experiment [1] (HEK293, read-out: hGIPR Emax, % ± SEM, cAMP, 37° C., 0.1% bovine casein, percent of maximal response to GIP(1-42)NH2, arithmetic mean) it was 105%; in experiment [3] (setting [6]) it was 110%. Besides, the EC50 in experiment [1] (hGIPR EC50, nM (SEM, n), 0.1% bovine casein and 1.0% human serum albumin, 37° C.) was 2.16 nM; in experiment [1] (setting [4]), 0.0243 nM; in experiment [2] (hGCGR EC50, nM (SEM, n), 0.1% bovine casein and 1.0% human serum albumin, 37° C., geometric mean), more than 9950 nM; in experiment [2] (setting [5]), more than 9950 nM; in experiment [3] (setting [7]), 0.791 nM.
Regarding `CC[C@H](C)[C@H](NC(=O)[C@H](CC(C)C)NC(=O)[C@](C)(Cc1ccc(O)cc1)NC(=O)[C@@H](CCC(=O)O)NC(=O)[C@@H](NC(=O)[C@H](Cc1ccccc1)NC(=O)[C@H](CCC(=O)O)NC(=O)C(C)(C)NC(=O)[C@H](CCC(N)=O)NC(=O)[C@H](C)NC(=O)[C@H](CCCCNC(=O)COCCOCCNC(=O)COCCOCCNC(=O)CC[C@H](NC(=O)CCCc1ccc(C(C)(C)C)cc1)C(=O)O)NC(=O)[C@H](CCCN)NC(=O)[C@H](CC(=O)O)NC(=O)[C@H](CC(C)C)NC(=O)[C@](C)(CC(C)C)NC(=O)[C@@H](NC(=O)[C@H](CO)NC(=O)[C@H](CCCCNC(=O)COCCOCCNC(=O)COCCOCCNC(=O)CC[C@H](NC(=O)CCCc1ccc(C(C)(C)C)cc1)C(=O)O)NC(=O)[C@H](CC(=O)O)NC(=O)[C@H](CO)NC(=O)[C@@H](NC(=O)[C@](C)(Cc1ccccc1F)NC(=O)[C@@H](NC(=O)CNC(=O)[C@H](CCC(=O)O)NC(=O)C(C)(C)NC(=O)[C@@H](N)Cc1ccc(O)cc1)[C@@H](C)O)[C@@H](C)O)[C@@H](C)CC)[C@@H](C)CC)C(=O)N[C@@H](CCC(=O)O)C(=O)NCC(=O)NCC(=O)N1CCC[C@H]1C(=O)N[C@@H](CO)C(=O)N[C@@H](CO)C(=O)NCC(=O)N[C@@H](C)C(=O)N1CCC[C@H]1C(=O)N1CCC[C@H]1C(=O)N1CCC[C@H]1C(=O)N[C@@H](CO)C(N)=O` [Example 130], the Emax in experiment [1] (setting [8]) stood at 94.7 ± 4.51%; in experiment [3] (HEK293, percent of maximal response to GLP-1(7-36)NH2, 37° C., 0.1% bovine casein, arithmetic mean, read-out: hGLP-1R Emax, % ± SEM), 100 ± 1.69%. In addition, the EC50 was 0.0266 nM in experiment [1] (setting [9]) and more than 9950 nM in experiment [2] (setting [10]).
With `CC[C@H](C)[C@H](NC(=O)[C@H](CC(C)C)NC(=O)[C@](C)(Cc1ccc(O)cc1)NC(=O)[C@H](CCCCNC(=O)CCOCCOCCOCCOCCOCCNC(=O)CC[C@H](NC(=O)CCCCCCCCCOc1ccc(C(=O)O)cc1)C(=O)O)NC(=O)[C@@H](NC(=O)[C@H](Cc1ccccc1)NC(=O)[C@H](CCCN)NC(=O)C(C)(C)NC(=O)[C@H](CCC(N)=O)NC(=O)[C@H](C)NC(=O)[C@H](CCC(N)=O)NC(=O)[C@H](CCCN)NC(=O)[C@H](CC(=O)O)NC(=O)[C@H](CC(C)C)NC(=O)[C@](C)(CC(C)C)NC(=O)[C@@H](NC(=O)C(C)(C)NC(=O)[C@H](Cc1ccncc1)NC(=O)[C@H](CC(=O)O)NC(=O)[C@H](CO)NC(=O)[C@@H](NC(=O)[C@](C)(Cc1ccccc1F)NC(=O)[C@@H](NC(=O)CNC(=O)[C@H](CCC(=O)O)NC(=O)C(C)(C)NC(=O)[C@@H](N)Cc1ccc(O)cc1)[C@@H](C)O)[C@@H](C)O)[C@@H](C)CC)[C@@H](C)CC)C(=O)N[C@@H](CCCCNC(=O)CCOCCOCCOCCOCCOCCNC(=O)CC[C@H](NC(=O)CCCCCCCCCOc1ccc(C(=O)O)cc1)C(=O)O)C(=O)NCC(=O)NCC(=O)N1CCC[C@H]1C(=O)N[C@@H](CO)C(=O)N[C@@H](CO)C(=O)NCC(=O)N[C@@H](C)C(=O)N1CCC[C@H]1C(=O)N1CCC[C@H]1C(=O)N1CCC[C@H]1C(=O)N[C@@H](CO)C(N)=O` [Example 469], the Emax was found to be 82.1% in experiment [1] (HEK293, read-out: hGIPR Emax, % ± SEM, cAMP, 37° C., 0.1% bovine casein and 1.0% human serum albumin, percent of maximal response to GIP(1-42)NH2); 93.8% in experiment [3] (HEK293, read-out: hGLP-1R Emax, % ± SEM, cAMP, 37° C., 0.1% bovine casein and 1.0% human serum albumin, percent of maximal response to GLP-1(7-36)NH2); 111% in experiment [3] (setting [6]). For the same molecule, the EC50 in experiment [1] (setting [4]) is 0.0121 nM; in experiment [2] (setting [5]) it was more than 9950 nM; in experiment [2] (hGCGR EC50, nM (SEM, n), cAMP, 37° C., 0.1% bovine casein and 1.0% human serum albumin, geometric mean (SEM, n)) it was more than 9950 nM; in experiment [3] (setting [7]), 0.161 nM; in experiment [3] (hGLP-1R EC50, nM (SEM, n), cAMP, 37° C., 0.1% bovine casein and 1.0% human serum albumin, geometric mean (SEM, n)) it was 2.33 nM.
On to `CC[C@H](C)[C@H](NC(=O)[C@H](CCCN)NC(=O)[C@H](CC(=O)O)NC(=O)[C@H](CC(C)C)NC(=O)[C@](C)(CC(C)C)NC(=O)[C@@H](NC(=O)[C@H](CO)NC(=O)[C@H](Cc1ccncc1)NC(=O)[C@H](CC(=O)O)NC(=O)[C@H](CO)NC(=O)[C@@H](NC(=O)[C@](C)(Cc1ccccc1F)NC(=O)[C@@H](NC(=O)CNC(=O)[C@H](CCC(=O)O)NC(=O)C(C)(C)NC(=O)[C@@H](N)Cc1ccc(O)cc1)[C@@H](C)O)[C@@H](C)O)[C@@H](C)CC)C(=O)N[C@@H](C)C(=O)N[C@@H](CCC(N)=O)C(=O)NC(C)(C)C(=O)N[C@@H](CCCCNC(=O)COCCOCCNC(=O)COCCOCCNC(=O)CC[C@H](NC(=O)CCCCCCCCCCCCC(=O)O)C(=O)O)C(=O)N[C@@H](Cc1ccccc1)C(=O)N[C@H](C(=O)N[C@H](CCC(=O)O)C(=O)N[C@@](C)(Cc1ccc(O)cc1)C(=O)N[C@@H](CC(C)C)C(=O)N[C@H](C(=O)N[C@@H](CCC(=O)O)C(=O)NCC(=O)NCC(=O)N1CCC[C@H]1C(=O)N[C@@H](CO)C(=O)N[C@@H](CO)C(=O)NCC(=O)N[C@@H](C)C(=O)N1CCC[C@H]1C(=O)N1CCC[C@H]1C(=O)N1CCC[C@H]1C(=O)N[C@@H](CO)C(=O)N[C@@H](CCCCNC(=O)COCCOCCNC(=O)COCCOCCNC(=O)CC[C@H](NC(=O)CCCCCCCCCCCCC(=O)O)C(=O)O)C(N)=O)[C@@H](C)CC)[C@@H](C)CC` [Example 75], for which the EC50 in experiment [1] (0.1% bovine casein and 1.0% human serum albumin, 37° C., read-out: hGIPR EC50, nM (SEM, n)) is 2.18 nM; in experiment [1] (setting [9]) it was 0.0182 nM; in experiment [2] (0.1% bovine casein and 1.0% human serum albumin, 37° C., geometric mean, read-out: hGCGR EC50, nM (SEM, n)) it was more than 9950 nM; in experiment [2] (setting [10]) it was more than 9950 nM; in experiment [3] (0.1% bovine casein and 1.0% human serum albumin, 37° C., geometric mean, read-out: hGLP-1R EC50, nM (SEM, n)), 41.3 nM; in experiment [3] (cAMP, incubated at 37° C., 0.1% bovine casein (no human serum albumin), geometric mean, read-out: hGLP-1R EC50, nM (SEM, n)) it was 0.411 nM. Besides, the maximum response (Emax) in experiment [1] (HEK293, 0.1% bovine casein and 1.0% human serum albumin, 37° C., percent of maximal response to GIP(1-42)NH2, read-out: hGIPR Emax, % ± SEM) worked out at 87.8 ± 3.33%; in experiment [1] (setting [8]), 92.3 ± 0.78%; in experiment [3] (HEK293, 0.1% bovine casein and 1.0% human serum albumin, 37° C., percent of maximal response to GLP-1(7-36)NH2, read-out: hGLP-1R Emax, % ± SEM), 97 ± 8.3%.
